target: Histamine H3 receptor (Homo sapiens, UniProt Q9Y5N1); test: Modulation of human histamine H3 receptor expressed in HEK293 cells assessed as change in forskolin-stimulated cAMP level after 1 hr by HTRF assay; assay type: functional, cell-based
Sequence (Q9Y5N1 whole entry): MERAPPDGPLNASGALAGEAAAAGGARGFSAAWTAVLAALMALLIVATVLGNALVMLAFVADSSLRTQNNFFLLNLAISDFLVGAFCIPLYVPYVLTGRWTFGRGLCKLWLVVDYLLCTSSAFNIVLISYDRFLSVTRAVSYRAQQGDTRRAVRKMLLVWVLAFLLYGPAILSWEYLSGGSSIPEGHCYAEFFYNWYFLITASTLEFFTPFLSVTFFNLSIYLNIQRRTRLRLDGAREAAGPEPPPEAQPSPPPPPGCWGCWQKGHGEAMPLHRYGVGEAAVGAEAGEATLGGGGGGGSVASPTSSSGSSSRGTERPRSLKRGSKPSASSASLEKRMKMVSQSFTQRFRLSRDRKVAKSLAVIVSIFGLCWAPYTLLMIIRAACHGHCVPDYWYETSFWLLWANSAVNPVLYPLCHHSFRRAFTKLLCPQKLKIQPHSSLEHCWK

| IC50 [nM] | SMILES |
| --- | --- |
| 2.1 | C[C@@H](C(=O)NCCc1ccc(-c2ccc(CCN3CCC[C@H]3C)cc2)cc1)C(=O)OC(C)(C)C |
| 15 | COC(=O)CCCC(=O)NC1(c2ccc(-c3ccc(CCN4CCC[C@H]4C)cc3)cc2)CCCC1 |
| 0.99 | COC(=O)CC(=O)NCCc1ccc(-c2ccc(CCN3CCC[C@H]3C)cc2)cc1 |
| 1.9 | COC(=O)CC(=O)NC1(c2ccc(-c3ccc(CCN4CCC[C@H]4C)cc3)cc2)CCCC1 |

More lines, now with the values behind:

| SMILES | IC50 [nM] |
| --- | --- |
| C[C@@H]1CCCN1CCc1ccc(-c2ccc(CCNC(=O)C(C)(C)C(=O)OC(C)(C)C)cc2)cc1 | 0.95 |
| C[C@@H]1CCCN1CCc1ccc(-c2ccc(C3(NC(=O)CCCC(=O)O)CCCC3)cc2)cc1 | 2.1 |
| COC(=O)C(C)(C)C(=O)Nc1ccc(-c2ccc(CCN3CCC[C@H]3C)cc2)cc1 | 1.2 |
| C[C@@H]1CCCN1CCc1ccc(-c2ccc(NC(=O)CCC(=O)O)cc2)cc1 | 2.5 |
